The results in this text go back to patent publication US8703438B2, “Ligand binding stabilization method for drug target identification” (The Regents of the University of California, priority 2008, dated 2014).

Assay type in all cases: binding
One experiment concerns the target T1, EF-1 alpha (Homo sapiens, UniProt P68104).
T1 construct: endogenous in cells; host or cells: Jurkat cells
As to the kind of experiment: DARTS with DB, detection of EF-1 alpha by immunoblotting. The method, then: FIG. 7 illustrates DARTS with Didemnin B using whole-cell lysates. Lysates from untreated human Jurkat cells were incubated with DMSO control or DB (1 ng/mL, 10 ng/mL, 100 ng/mL, 300 ng/mL, and 1 μg/mL) for 30 min at room temperature. Each sample was then split into two, which underwent thermolysin proteolysis, or mock digestion, respectively, followed by western blot analysis. Protection can be seen starting at 100 ng/mL.
Examination of the protected band and the matching gel region of the control lane by mass spectrometry confirmed that EF-1 alpha was the primary protein present at higher abundance in the DB-treated sample (FIG. 3B). […] The generality of this approach is further supported by experiments using diverse protein-drug pairs ranging from nano- to micro-molar: mTOR-rapamycin, COX-2celecoxib, and SCF E3 ubiquitin ligase-inhibitor (FIG. 8). Furthermore, DARTS is not enzyme specific, and much higher overall digestion efficiency can be achieved using other proteases while retaining protection of the target protein (see Example 2 and FIG. 9).
For FIGS. 3A and 3C, intact Jurkat cells were treated with DB from 100 pg/mL to 1 μg/mL or DMSO control for 30 min. […]
For FIG. 7, human Jurkat cells were lysed in M-PER (Pierce) supplemented with protease and phosphatase inhibitors. Protein concentration was determined by BCA Protein Assay kit (Pierce). […]
A general note: In western blotting, separated proteins are transferred to a membrane and probed.

In experiment [1] the target is T2, proteins of human Jurkat cell lysate (EF-1alpha isoforms and others) (Homo sapiens, UniProt P68104).
T2 construct: endogenous in cells; host or cells: Jurkat cells
Description: DARTS with DB-treated intact Jurkat cells, thermolysin, Coomassie staining and mass spectrometry of protected band. The settings on record: DB vs DMSO, mass spectrometry. The source says:
(§1) The experiments above established that DARTS can efficiently test, screen, or verify drug-protein interactions when the protein is available in relatively pure form. For DARTS to be generally useful as a discovery tool, however, applicability to complex protein mixtures (such as cell lysates) would be desirable. […] Given that EF-1 alpha is a highly abundant protein, we first tested whether in the DARTS protocol DB would protect EF-1 alpha from proteolysis and result in a detectable difference.
(§2) For FIGS. 3A and 3C, intact Jurkat cells were treated with DB from 100 pg/mL to 1 μg/mL or DMSO control for 30 min. Cells were lysed (without washing, in these experiments) with M-PER (Pierce) supplemented with protease and phosphatase inhibitors. After centrifugation (14,000 rpm, 15 min), lysates were diluted to the same final volume and protein concentration with M-PER and proteolysed in reaction buffer [50 mM Tris-HCl pH 8.0, 50 mM NaCl, 10 mM CaCl2]. All steps were performed on ice or at 4° C. to help prevent premature protein degradation. Each sample was then quickly warmed to room temperature and proteolysed with 1 μg thermolysin for every 15 μg lysate for 10 min. To stop proteolysis, 0.5 M EDTA (pH 8.0) was added to each sample at a 1:10 ratio, mixed well, and placed on ice.
(§3) Gel bands were cut out and prepared for mass spec analysis with trypsin digestion as described in SI. Peptides were analyzed by LC/MS/MS on a Thermo LTQ-Orbitrap mass spectrometer with an Eksigent LC pump. For quantitative comparison of protein and peptide abundances, MS spectra were analyzed using the differential workflow of Rosetta Elucidator (Rosetta Inpharmatics) (54). Annotation was performed using PeptideTeller and ProteinTeller (see SI).
(§4) The result could indicate lower affinity binding of DB to PGK1, or secondary effects on protein abundance because in this experiment the cells were treated with drug in vivo.
(§5) Proteins were initially identified by searching the spectra against the human International Protein Index database (version 3.46) and the S. cerevisiae Swissprot database (May 2008) using the SEQUEST algorithm (Eng et al. (1994) J Am Soc Mass Spectrom 5: 976-989) integrated into the Bioworks software package. Each peptide met the following criteria: XCorr ≧2 (+1), ≧3 (+2), ≧4 (+3), ≧5 (+4), and DeltaCN>0.1. For quantitative comparison of protein and peptide abundances, MS spectra were analyzed using the differential workflow of the Rosetta Elucidator software system (Rosetta Inpharmatics) (Neubert et al. (2008) J Proteome Res 7: 2270-2279). Annotation was performed using PeptideTeller and ProteinTeller with a minimum probability of 0.99 and predicted error of 0.0. Protein ratio data were generated with a P-value cutoff of 0.01 for all proteins with a peptide number >1. Intensity scaling was performed against the mean of feature signals, with 10% of outliers removed from the baseline dataset. Similar results were obtained in analysis without intensity scaling (FIG. 9A).

In experiment [2] the target is T3, proteins of human Jurkat cell lysate (EF-1alpha isoforms and others) (Homo sapiens, UniProt Q9P2R7).
T3 construct: endogenous in cells; host or cells: Jurkat cells
T3 sequence (Q9P2R7 53-463): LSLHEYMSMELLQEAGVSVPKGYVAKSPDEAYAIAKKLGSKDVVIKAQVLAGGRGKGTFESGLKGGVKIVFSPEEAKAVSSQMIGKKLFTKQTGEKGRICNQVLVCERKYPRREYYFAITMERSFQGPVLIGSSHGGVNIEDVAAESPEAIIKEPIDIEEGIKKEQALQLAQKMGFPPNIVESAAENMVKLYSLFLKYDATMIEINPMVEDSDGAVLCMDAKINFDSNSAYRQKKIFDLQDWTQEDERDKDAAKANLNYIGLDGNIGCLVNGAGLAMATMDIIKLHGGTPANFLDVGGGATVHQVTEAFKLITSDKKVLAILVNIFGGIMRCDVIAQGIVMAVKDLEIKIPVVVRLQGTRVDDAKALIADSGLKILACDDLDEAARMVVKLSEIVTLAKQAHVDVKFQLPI
The description is as above. As to conditions: DB vs DMSO, mass spectrometry.
Text: as §1, §2, §3, §4, §5

The subject of experiment [3] is proteins of human Jurkat cell lysate (EF-1alpha isoforms and others). The experiment is described as above. The settings on record: DB-treated Jurkat cells, 1 μg/mL, FIG. 3A.
Text: as §1, §2, §3, §4, §5

Experiment [4] concerns the target T4, proteins of human Jurkat cell lysate (EF-1alpha isoforms and others) (Homo sapiens, UniProt P00558).
T4 construct: endogenous in cells; host or cells: Jurkat cells
T4 sequence (P00558 1-417): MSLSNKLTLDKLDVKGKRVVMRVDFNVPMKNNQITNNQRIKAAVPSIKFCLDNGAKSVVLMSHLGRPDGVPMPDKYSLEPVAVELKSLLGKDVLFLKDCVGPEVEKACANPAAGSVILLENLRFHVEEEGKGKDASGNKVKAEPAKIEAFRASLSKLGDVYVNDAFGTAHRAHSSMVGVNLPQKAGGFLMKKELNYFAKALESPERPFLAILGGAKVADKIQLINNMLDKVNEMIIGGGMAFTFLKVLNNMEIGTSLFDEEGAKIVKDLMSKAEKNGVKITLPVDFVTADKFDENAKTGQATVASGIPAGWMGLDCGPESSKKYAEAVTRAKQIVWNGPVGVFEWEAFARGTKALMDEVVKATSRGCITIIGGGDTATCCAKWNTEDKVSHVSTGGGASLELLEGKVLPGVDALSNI
The description is as above. The settings on record: DB vs DMSO, mass spectrometry.
Text: as §1, §2, §3, §4, §5

In experiment [5] the target is T5, proteins of human Jurkat cell lysate (EF-1alpha isoforms and others) (Homo sapiens, UniProt Q13838).
T5 construct: endogenous in cells; host or cells: Jurkat cells
The experiment is described as above. The settings on record: DB vs DMSO, mass spectrometry.
Text: as §1, §2, §3, §4, §5

Experiment [6] addresses T6, proteins of human Jurkat cell lysate (EF-1alpha isoforms and others) (Homo sapiens, UniProt Q05639).
T6 construct: endogenous in cells; host or cells: Jurkat cells
Described as above. The settings on record: DB vs DMSO, mass spectrometry.
Text: as §1, §2, §3, §4, §5

For experiment [7], the target named is T7, proteins of human Jurkat cell lysate (EF-1alpha isoforms and others) (Homo sapiens, UniProt P06733).
T7 construct: endogenous in cells; host or cells: Jurkat cells
Described as above. As to conditions: DB vs DMSO, mass spectrometry.
Text: as §1, §2, §3, §4, §5

T1 sequence (P68104 2-462): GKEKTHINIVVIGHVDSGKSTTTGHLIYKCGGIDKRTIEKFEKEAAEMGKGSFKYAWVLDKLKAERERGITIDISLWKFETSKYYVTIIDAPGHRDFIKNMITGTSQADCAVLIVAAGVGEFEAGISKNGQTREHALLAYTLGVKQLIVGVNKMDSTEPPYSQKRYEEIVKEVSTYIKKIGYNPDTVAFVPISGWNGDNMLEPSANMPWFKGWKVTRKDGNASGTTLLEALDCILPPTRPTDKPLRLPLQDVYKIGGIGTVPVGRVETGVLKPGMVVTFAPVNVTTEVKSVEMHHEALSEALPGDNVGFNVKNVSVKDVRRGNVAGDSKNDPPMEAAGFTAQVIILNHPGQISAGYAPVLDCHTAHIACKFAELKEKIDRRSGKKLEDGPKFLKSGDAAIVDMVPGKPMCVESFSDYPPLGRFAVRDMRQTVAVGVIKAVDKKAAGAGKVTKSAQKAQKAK
T2 sequence (P68104 whole entry, canonical isoform): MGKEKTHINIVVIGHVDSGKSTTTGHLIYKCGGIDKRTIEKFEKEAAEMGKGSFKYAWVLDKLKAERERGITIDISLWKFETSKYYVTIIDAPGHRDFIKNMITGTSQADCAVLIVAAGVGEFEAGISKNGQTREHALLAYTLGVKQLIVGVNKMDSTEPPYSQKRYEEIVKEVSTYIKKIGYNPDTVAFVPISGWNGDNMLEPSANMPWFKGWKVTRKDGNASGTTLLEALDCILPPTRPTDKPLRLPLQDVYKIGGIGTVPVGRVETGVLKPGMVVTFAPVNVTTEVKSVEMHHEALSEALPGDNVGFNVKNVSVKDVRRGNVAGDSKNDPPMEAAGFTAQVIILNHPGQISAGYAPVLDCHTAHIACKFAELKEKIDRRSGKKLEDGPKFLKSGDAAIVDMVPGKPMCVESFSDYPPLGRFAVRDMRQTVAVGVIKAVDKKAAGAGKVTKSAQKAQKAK
T6 sequence (Q05639 whole entry, canonical isoform): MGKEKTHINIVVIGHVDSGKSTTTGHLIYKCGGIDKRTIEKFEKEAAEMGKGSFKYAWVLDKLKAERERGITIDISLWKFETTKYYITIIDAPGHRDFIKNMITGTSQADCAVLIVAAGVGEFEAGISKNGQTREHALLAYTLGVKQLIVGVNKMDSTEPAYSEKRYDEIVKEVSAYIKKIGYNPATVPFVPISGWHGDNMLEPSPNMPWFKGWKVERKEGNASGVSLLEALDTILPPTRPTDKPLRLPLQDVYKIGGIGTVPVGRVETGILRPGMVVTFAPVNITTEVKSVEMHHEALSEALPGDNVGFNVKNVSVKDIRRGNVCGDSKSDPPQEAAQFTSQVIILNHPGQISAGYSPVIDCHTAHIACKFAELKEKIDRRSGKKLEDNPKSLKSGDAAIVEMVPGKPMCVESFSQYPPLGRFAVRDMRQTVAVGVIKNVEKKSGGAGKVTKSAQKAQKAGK
T7 sequence (P06733 whole entry, canonical isoform): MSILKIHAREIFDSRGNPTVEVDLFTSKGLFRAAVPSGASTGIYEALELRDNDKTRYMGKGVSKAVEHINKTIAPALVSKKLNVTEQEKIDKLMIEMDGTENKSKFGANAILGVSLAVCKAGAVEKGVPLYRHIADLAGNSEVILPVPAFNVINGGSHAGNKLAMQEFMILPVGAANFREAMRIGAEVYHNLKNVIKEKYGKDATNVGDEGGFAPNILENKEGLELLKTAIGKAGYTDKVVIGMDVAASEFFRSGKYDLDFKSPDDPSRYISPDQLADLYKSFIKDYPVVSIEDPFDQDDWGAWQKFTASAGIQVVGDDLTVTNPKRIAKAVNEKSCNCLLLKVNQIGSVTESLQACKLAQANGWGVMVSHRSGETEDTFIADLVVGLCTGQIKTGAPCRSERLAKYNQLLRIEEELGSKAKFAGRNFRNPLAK
T5 sequence (Q13838 whole entry, canonical isoform): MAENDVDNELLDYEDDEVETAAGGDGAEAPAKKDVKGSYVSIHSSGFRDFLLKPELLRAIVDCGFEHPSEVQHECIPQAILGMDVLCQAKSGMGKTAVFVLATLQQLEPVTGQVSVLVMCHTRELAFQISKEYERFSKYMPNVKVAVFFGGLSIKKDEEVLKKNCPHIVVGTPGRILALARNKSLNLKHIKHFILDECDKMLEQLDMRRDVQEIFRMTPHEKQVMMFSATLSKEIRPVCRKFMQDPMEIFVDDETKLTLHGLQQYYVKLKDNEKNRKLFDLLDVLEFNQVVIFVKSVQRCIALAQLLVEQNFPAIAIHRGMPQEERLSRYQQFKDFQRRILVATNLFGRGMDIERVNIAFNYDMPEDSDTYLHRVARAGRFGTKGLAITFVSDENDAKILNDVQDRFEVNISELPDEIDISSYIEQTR

On to `CC[C@H](C)[C@H]1NC(=O)[C@@H](NC(=O)[C@@H](CC(C)C)N(C)C(=O)[C@@H]2CCCN2C(=O)C(C)O)[C@@H](C)OC(=O)[C@H](Cc2ccc(OC)cc2)N(C)C(=O)[C@@H]2CCCN2C(=O)[C@H](CC(C)C)NC(=O)[C@@H](C)C(=O)[C@H](C(C)C)OC(=O)C[C@@H]1O` (stereo partly drawn) [DB, didemnin B], for which the “concentration at which protection starts” value on EF-1 alpha (Jurkat lysates incubated in vitro 30 min, thermolysin, western blot, FIG. 7) amounted to 100 ng/mL. On EF-1 alpha (intact cells treated and lysates incubated in vitro), the “proteolytic protection of EF-1 alpha by immunoblotting” value is listed as “concentration dependent proteolytic protection”. Moreover, the “enrichment of EEF1A1 in protected band” value in experiment [1] is 18.7 fold. Moreover, the “enrichment of SUCLA2 in protected band” value in experiment [2] was found to be 11.7 fold. The “protected band on Coomassie-stained gel after thermolysin” value in experiment [3] was “strong protected band”. The “enrichment of PGK1 in protected band” value in experiment [4] came out at 2.4 fold. The “enrichment of BAT1 in protected band” value in experiment [5] is listed as 7.5 fold. Besides, the “enrichment of EEF1A2 in protected band” value in experiment [6] was 21.7 fold. The “change of ENO1 in protected band (depleted)” value in experiment [7] is listed as −1.8 fold.
